In one test the test system is Interleukin-10 (IL-10). Put plainly: Blood IL-10 in LPS sepsis model (ELISA). Type of test: in vivo, mouse. The following applies: about 80 mg/kg i.p., 1 hr and 4 hr, versus saline. The procedure:
Lipopolysaccharide (LPS) (0.6 mg/kg) was intraperitoneally administered to male Balb/c mice (about 2-3 months old) to generate a sepsis model. Immediately after the LPS administration, 200 μl (about 80 mg/kg) of a solution prepared by diluting various heterocyclic compounds and isothiocyanate compounds 100 times with saline was intraperitoneally administered. Blood samples were collected 60 min after LPS and compound administration, EDTA plasma was prepared, and the blood level of inflammatory cytokine TNF-a was measured by the ELISA method.
A sepsis model mouse was prepared by the same method as in Example 18. Immediately after the LPS administration, 200 μl (about 80 mg/kg) of a thiazoline-related compound (2MT) solution prepared by diluting 100 times with saline was intraperitoneally administered. Blood samples were collected 1 hr and 4 hr after administration of LPS and thiazoline-related compound (2MT), EDTA plasma was prepared, and the blood levels of inflammatory cytokine Interleukin-1β (IL-1β), and anti-inflammatory cytokine Interleukin-10 (IL-10) were measured by the ELISA method.

The next test concerns mice. Put plainly: Oxygen consumption after intraperitoneal injection. Type of test: in vivo, mouse. The following applies: versus saline. On the procedure:
(§1) An influence of a thiazoline-related compound on the oxygen consumption was analyzed. The oxygen consumption was analyzed using an energy metabolism measurement device for small animals (ARCO-2000; ARCO SYSTEM). About 3-month-old C57/BL6N male mice were each placed in a measuring chamber and, after acclimation for about 2 hr, a thiazoline-related compound (2MT) was presented. The odors were presented by placing filter papers scented with 100 μl (104 mmol) of odor molecules in the measuring chamber. As a control, an experiment in which a filter paper dropped with saline was presented to the mice was also performed. The oxygen consumption was measured every one min. Mean oxygen consumption was calculated as the mean of 10 min before presenting odor and 20 min after presenting odor.
Changes in the oxygen consumption induced by intraperitoneal injection of heterocyclic compounds (2MT and Thiomorpholine (TMO) were measured by a method similar to that in Example 8.

The subject of test [1] is Trpa1 knockout mice and littermate hetero mice. Put plainly: Oxygen consumption on odor presentation, Trpa1 knockout and hetero mice. The following applies: two filter papers scented with 271 μmol. It is filed as in vivo, mouse. On the procedure: as §1
The oxygen consumption was measured using an energy metabolism measurement device for small animals as in Example 8.About 3-month to 6-month-old Trpa1 knockout mice and littermate hetero mice were each placed in a measuring chamber of the energy metabolism measurement device for small animals and, after acclimation for about 2 hr, a thiazoline-related compound (2MT) was presented. The odor was presented by placing two filter papers scented with 271 μmol of thiazoline-related compound (2MT) in the measuring chamber.

Test [2] deals with C57/BL6N male mice. Put plainly: Core body temperature under the odor conditions of Example 9. The note with it: odor presentation conditions of Example 9. It is filed as in vivo, mouse. The procedure:
(§2) An influence of a thiazoline-related compound and an odor molecule that induces learned fear on the core body temperature was analyzed. A radio-telemetry device for monitoring biological parameters (manufactured by Physiotel) was surgically implanted in the abdomen of male C57/BL6N mice (about 3 months old). The mice were subjected to the following experiment after about 10 days of recovery period. […] The information of body temperature was recorded every 10 sec using Dataquest A.R.T. software (DataScience international). The value of the core body temperature change was calculated as the difference between the mean core body temperature for 10 min when water was presented and the mean core body temperature for 20 min when each odor molecule was presented, and the change in the core body temperature without odor was set to 0. […]
About 3-month-old C57/BL6N male mice were each placed in a highly sealed breeding cage, and a filter paper scented with 100 μl (104 mmol) of the thiazoline-related compound (2MT) was placed in the breeding cage, and the odor was presented for 50 min. After the odor was presented, the mice were placed in a tight box in which the oxygen concentration was adjusted to 4%, and the survival time of the mice was measured up to 30 min at maximum. As a control, the survival time of mice presented with a filter paper dropped with water was also measured (no odor). […]

For test [3], the system named is cerebral ischemia-reperfusion injury model mouse. Put plainly: Cerebral ischemia-reperfusion injury, MAP2-unstained area. It is filed as in vivo. The following applies: about 80 mg/kg i.p. at the reperfusion, two days after reperfusion, versus saline. On the procedure: The bilateral common carotid arteries of about 3-month-old C57/BL6 mouse were ligated by clips to induce cerebral ischemia injury, and the blood was reperfused by removing the clips 30 min later. A thiazoline-related compound (2MT) solution (200 μl, about 80 mg/kg), or saline, as a control, was intraperitoneally administered at the reperfusion. Two days after the reperfusion, the brain tissue of the mouse was removed, brain sections were prepared, and the injured region was analyzed by antibody staining with Microtubule-associated protein 2 (MAP2).

In test [4] the test system is C57/BL6N male mice. Put plainly: Core body temperature under the odor conditions of Example 14. Type of test: in vivo, mouse. The following applies: odor presentation conditions of Example 14. The procedure:
as §2
Skin ischemia-reperfusion injury model mouse was generated as follows according to the method of Uchiyama et al. (Uchiyama et al., Sci Rep 5:9072, 2015). […] The condition of the skin on the back, which was pinched between magnets, was recorded by taking photographs every day. Based on the obtained images, the wound area was quantified with image analysis software (Photoshop, Adobe). Furthermore, changes in the core body temperature when the odor was presented under the same conditions as in this Example were measured by the same experimental method as in Example 2.

The test system of test [5] is C57/BL6N male mice. Put plainly: Oxygen consumption on odor presentation. Type of test: in vivo, mouse. The following applies: filter paper scented with 100 μl (104 mmol) odor, versus saline. On the procedure:
as §1

For the next test, the system named is Male C57/BL6N mice. Put plainly: Core body temperature on odor presentation (radio-telemetry). It is filed as in vivo, mouse. The following applies: filter paper scented with 271 μmol odor, 20 min, versus no odor. The procedure: An influence of a thiazoline-related compound and an odor molecule that induces learned fear on the core body temperature was analyzed. A radio-telemetry device for monitoring biological parameters (manufactured by Physiotel) was surgically implanted in the abdomen of male C57/BL6N mice (about 3 months old). The mice were subjected to the following experiment after about 10 days of recovery period. Each mouse was placed in a test cage and, after acclimation for 10 min, a filter paper dropped with water was presented for 10 min, after which a filter paper scented with 271 μmol of a thiazoline-related compound (2-methyl-2-thiazoline; 2MT) or an odor molecule that induces learned fear (anisole) was presented for 20 min. The information of body temperature was recorded every 10 sec using Dataquest A.R.T. software (DataScience international). The value of the core body temperature change was calculated as the difference between the mean core body temperature for 10 min when water was presented and the mean core body temperature for 20 min when each odor molecule was presented, and the change in the core body temperature without odor was set to 0. The mice presented with the odor that induces learned fear were trained to associate the anisole odor with electric shock one day before the measurement, whereby the mice learned to feel learned fear against the smell of anisole.

For the compound `CC1=NCCS1` [2MT, 2-methyl-2-thiazoline], in the test on Interleukin-10 (IL-10), the “blood concentration of IL-10” value is recorded as “increased the blood concentration of anti-inflammatory cytokine IL-10”. Besides, the oxygen consumption result in the test with mice is on record as “suppress the oxygen consumption”. Besides, the “oxygen consumption per body weight” value in test [1] (Trpa1 knockout mice (Trpa1−/−)) was “the oxygen consumption did not decrease”; in test [1] (control mice (Trpa1+/−)) it was “the oxygen consumption was decreased”; in the test on C57/BL6N male mice [5] it was “decreased remarkably”. The core body temperature result in the test on C57/BL6N male mice [2] and with C57/BL6N male mice [4] was “remarkable decrease in the core body temperature” in each case. Besides, the “area of the injured region of the brain (not stained with MAP2)” value in test [3] is listed as “reduce cerebral ischemia-reperfusion injury”. Further, in the test on Male C57/BL6N mice, the “changes in the core body temperature” value is listed as “clear decrease in the core body temperature”.
